Reference: patent US11358959B2, “Benzothiophene and benzothiazole compounds and methods of use thereof” (Araxes Pharma LLC, priority 2017, dated 2022)

target: T1, KRAS G12C 1-169, his-tagged protein, GDP-loaded (Homo sapiens, UniProt P01116, G12C); assay: Biochemical assay: covalent binding to KRAS G12C by mass spectrometry; settings: covalently bind to KRAS G12C after a thirty minute incubation period
T1 construct: KRAS G12C 1-169, his-tagged protein, GDP-loaded; His
Experimental: Test compounds were prepared as 10 mM stock solutions in DMSO (Fisher cat #BP-231-100). KRAS G12C 1-169, his-tagged protein, GDP-loaded was diluted to 2 μM or 0.5 μM in buffer (20 mM Hepes, 150 mM NaCl, 1 mM MgCl2). Compounds were tested for activity as follows:
Compounds were diluted to 50× final test concentration in DMSO in 96-well storage plates. Compound stock solutions were vortexed before use and observed carefully for any sign of precipitation. Dilutions were as follow: • For 100 μM final compound concentration, compounds were diluted to 5000 μM (5 μL 10 mM compound stock+5 μL DMSO and mixed well by pipetting. • For 30 […] final compound concentration, compounds were diluted to 1500 μM (3 μL 10 mM compound stock+17 μL DMSO) and mixed well by pipetting. • For 10 μM final compound concentration, compounds were diluted to 500 μM (2 μL 10 mM compound stock+38 μL DMSO) and mixed well by pipetting. 49 μL of the stock protein solution was added to each well of a 96-well PCR plate (Fisher cat #1423027). 1 μl of the diluted 50× compounds were added to appropriate wells in the PCR plate using 12-channel pipettor. Reactions were mixed carefully and thoroughly by pipetting up/down with a 200 μL multi-channel pipettor. The plate was sealed well with aluminum plate seal, and stored in drawer at room temperature for 10 minutes, 30 minutes, 2 hours or 24 hours. 5 μL of 2% formic acid (Fisher cat #A117) in de-ionized H2O was then added to each well followed by mixing with a pipette. The plate was then resealed with aluminum seal and stored on dry ice until analyzed as described below.
The above described assays were analyzed by mass spectrometry according to one of the following two procedures:
The MS instrument is set to positive polarity, 2 GHz resolution, and low mass (1700) mode and allowed to equilibrate for 30 minutes. The instrument is then calibrated, switched to acquisition mode and the appropriate method loaded.
After another 30 minute equilibration time, a blank batch (i.e., buffer) is run to ensure equipment is operating properly. The samples are thawed at 37° C. for 10 minutes, briefly centrifuged, and transfer to the bench top. Wells A1 and H12 are spiked with 1 μL 500 μM internal standard peptide, and the plates centrifuged at 2000×g for 5 minutes. The method is then run and masses of each individual well recorded.
The masses (for which integration data is desired) for each well are pasted into the platemap and exported from the analysis. Masses for the internal standards are exported as well. The data at 50 ppm is extracted for the +19 charge state, and identity of well A1 is assigned using the internal standard spike and integrated. Peak data is exported as a TOF list and the above steps are repeated individually, for the +20, 21, 22, 23, 24, and 25 charge states.
The masses and peak intensities of KRAS G12C protein species were measured using a Dionex RSLCnano system (Thermo Scientific) connected to a Q Exactive Plus mass spectrometer (Thermo Scientific).
[…] of sample was each loaded onto a Aeris™ 3.6 μm WIDEPORE C4 200 Å, LC Column 50×2.1 mm column maintained at 40° C. at a flow rate of 600 μL/min with 20% Solvent A (0.1% formic acid in H2O) and 80% Solvent B (0.1% formic acid in acetonitrile). The liquid chromatography conditions were 20% solvent B for 1 minute, 20% to 60% solvent B for 1.5 minutes, 60% to 90% solvent for 0.5 minute, 90% solvent B for 0.2 minute, 90% to 20% solvent B for 0.2 minute, and then equilibrated for 1.6 minute before the following sample injection. The flow rate was maintained at 600 μL/min throughout the sample analysis.
The mass spectrometer was operated in profile mode at a resolution of 17500, 5 microscans, using 50 msec max injection time and an AGC target of 1×10^6, and a full mass range from 800-1850 m/z was recorded. The HCD trapping gas was optimized for maximum sensitivity for intact proteins. […]

T1 sequence (P01116 1-169 isoform P01116-2 G12C): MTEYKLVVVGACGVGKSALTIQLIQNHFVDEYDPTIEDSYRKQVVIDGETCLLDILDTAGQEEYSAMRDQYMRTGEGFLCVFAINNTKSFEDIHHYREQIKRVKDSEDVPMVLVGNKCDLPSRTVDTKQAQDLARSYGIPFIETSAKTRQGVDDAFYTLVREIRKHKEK

**Q.** Which Binding % does the source give for `C=CC(=O)N1CC(c2ccc3nc(-c4c(C)ccc5[nH]ncc45)sc3c2)C1` [Compound 3, 1-(3-(2-(5-methyl-1H-indazol-4-yl)benzo[d]thiazol-6-yl)azetidin-1-yl)prop-2-en-1-one] here?
**A.** + (+ indicates binding activity up to 10%)

**Q.** With `C=CC(=O)N1CC(c2ccc3cc(-c4cc(O)cc5ccccc45)sc3c2)C1` [Compound 1, 1-(3-(2-(3-hydroxynaphthalen-1-yl)benzo[b]thiophen-6-yl)azetidin-1-yl)prop-2-en-1-one] as the molecule, how does the Binding % read?
**A.** +++ (+++ indicates binding activity greater than 50%)

**Q.** Which Binding % does the source give for `C=CC(=O)N1CC(c2ccc3cc(-c4c(C)ccc5[nH]ncc45)sc3c2)C1` [Compound 2, 1-(3-(2-(5-methyl-1H-indazol-4-yl)benzo[b]thiophen-6-yl)azetidin-1-yl)prop-2-en-1-one] here?
**A.** ++ (++ indicates binding activity from 10 to 50%)

**Q.** For `C=CC(=O)N1CC(c2ccc3nc(-c4c(C)ccc5[nH]ncc45)oc3c2)C1` [Compound 6, 1-(3-(2-(5-methyl-1H-indazol-4-yl)benzo[d]oxazol-6-yl)azetidin-1-yl)prop-2-en-1-one], which Binding % is on record?
**A.** ++ (++ indicates binding activity from 10 to 50%)

**Q.** How did the Binding % turn out when `C=CC(=O)N1CC(c2ccc3nc(-c4cc(O)cc5ccccc45)oc3c2)C1` [Compound 5, 1-(3-(2-(3-hydroxynaphthalen-1-yl)benzo[d]oxazol-6-yl)azetidin-1-yl)prop-2-en-1-one] was run?
**A.** +++ (+++ indicates binding activity greater than 50%)

**Q.** For `C=CC(=O)N1CC(c2ccc3nc(-c4cc(O)cc5ccccc45)sc3c2)C1` [Compound 4, 1-(3-(2-(3-hydroxynaphthalen-1-yl)benzo[d]thiazol-6-yl)azetidin-1-yl)prop-2-en-1-on], which Binding % is on record?
**A.** +++ (+++ indicates binding activity greater than 50%)
